Measured values: patent publication US20110281869A1, “TETRAHYDROISOQUINOLINES AS ANTIMALARIAL AGENTS” (priority 2008, published 2011)

What follows are compounds tested on P. falciparum K1 (assay: Plasmodium falciparum in vitro assay ([3H] hypoxanthine incorporation)). Conditions: Plasmodium falciparum; erythrocytic stages, strain K1 resistant to chloroquine and pyrimethamine, human red cells; read-out: IC50 (nM) on K1.
Format: cell-based
Method: In vitro antimalarial activity: Plasmodium falciparum in vitro assay In vitro activity against erythrocytic stages of P. falciparum is determined using a [^3H] hypoxanthine incorporation assay. One strain resistant to chloroquine and pyrimethamine (P. falciparum K1) is used in the assays, and all test compounds are compared for activity with the standard drugs chloroquine (sigma C6628) and artemisinin (sigma-36, 159-3). Compounds are diluted in DMSO to 1 mM and added to parasite cultures incubated in RPMI 1640 medium without hypoxanthine, supplemented with HEPES (5.94 g/L), NaHCO3 (2.1 g/L), neomycin (100 U/mL), Albumax (5 g/L) and washed human red cells at 2.5% hematocrit (0.3% parasitaemia). Seven serial doubling dilutions of each drug are prepared in 96-well microtitre plates and incubated in a humidifying atmosphere at 37° C.; 4% CO2, 3% O2, 93% N2.
After 48 h, 50 μl of [^3H] hypoxanthine (0.5 μCi) is added to each well of a plate. The plates are incubated for a further 24 h under the same conditions. The plates are then harvested with a Betaplate cell harvester (Wallac) and washed with distilled water. The dried filters are inserted into a plastic foil with 10 mL of scintillation fluid, and counted in a Betaplate liquid scintillation counter. IC50 values are calculated from sigmoidal inhibition curves using Microsoft Excel.
Work on `O=C([C@H](Cc1ccccc1)N(Cc1ccc(-c2cncnc2)cc1)C(=O)C=Cc1ccc(Cl)nc1)N1CCc2ccccc2C1` [Example 228, (S)—N-[1-Benzyl-2-(3,4-dihydro-1H-isoquinolin-2-yl)-2-oxo-ethyl]-3-(6-chloro-pyridin-3-yl)-N-(4-pyrimidin-5-yl-benzyl)-acrylamide] yielded an IC50 of 8.5 nM.
For `Cn1ccc(C=CC(=O)N(Cc2ccc(-c3ccncc3)cc2)[C@@H](Cc2ccccc2)C(=O)N2CCc3ccccc3C2)n1` [Example 243, (S)—N-[1-Benzyl-2-(3,4-dihydro-1H-isoquinolin-2-yl)-2-oxo-ethyl]-3-(1-methyl-1H-pyrazol-3-yl)-N-(4-pyridin-4-yl-benzyl)-acrylamide], the IC50 was under 7.8 nM.
For `COc1ccc2c(c1)CN(C(=O)[C@H](Cc1ccccc1)N(Cc1ccc(-c3ccccn3)cc1)C(=O)C=Cc1ccc(C(F)(F)F)cc1)CC2` [Example 69, (S)—N-[1-Benzyl-2-(7-methoxy-3,4-dihydro-1H-isoquinolin-2-yl)-2-oxo-ethyl]-N-(4-pyridin-2-yl-benzyl)-3-(4-trifluoromethyl-phenyl)-acrylamide], the IC50 was 12 nM.
Work on `O=C([C@H](Cc1ccccc1)N(Cc1ccc(-c2cncnc2)cc1)C(=O)C=Cc1ccc(C(F)(F)F)nc1)N1CCc2ccccc2C1` [Example 4, (S)—N-[1-Benzyl-2-(3,4-dihydro-1H-isoquinolin-2-yl)-2-oxo-ethyl]-N-(4-pyrimidin-5-yl-benzyl)-3-(6-trifluoromethyl-pyridin-3-yl)-acrylamide] yielded an IC50 of 5 nM.
`C[C@@H]1CC[C@H]2[C@@H](C)C(=O)O[C@@H]3O[C@@]4(C)CC[C@@H]1[C@]32OO4` [Artemisinin, artemisinin, reference compound] showed an IC50 of 2 nM.
For `O=C(C(Cc1ccon1)N(Cc1ccc(-c2ccncc2)cc1)C(=O)C=Cc1ccc(C(F)(F)F)cc1)N1CCc2ccccc2C1` (racemic) [Example 87, rac-N-[2-(3,4-Dihydro-1H-isoquinolin-2-yl)-1-isoxazol-3-ylmethyl-2-oxo-ethyl]-N-(4-pyridin-4-yl-benzyl)-3-(4-trifluoromethyl-phenyl)-acrylamide], the IC50 was 194 nM.
With `Cc1c(C=CC(=O)N(Cc2ccc(-c3ccncc3)cc2)[C@@H](Cc2ccccc2)C(=O)N2CCc3ccccc3C2)cnn1C` [Example 250, (S)—N-[1-Benzyl-2-(3,4-dihydro-1H-isoquinolin-2-yl)-2-oxo-ethyl]-3-(1,5-dimethyl-1H-pyrazol-4-yl)-N-(4-pyridin-4-yl-benzyl)-acrylamide] the IC50 was 2 nM.
`COc1ccc(C=CC(=O)N(Cc2ccc(N3CCOCC3)cc2)[C@@H](Cc2ccccc2)C(=O)N2CCc3ccccc3C2)cn1` [Example 220, (S)—N-[1-Benzyl-2-(3,4-dihydro-1H-isoquinolin-2-yl)-2-oxo-ethyl]-3-(6-methoxy-pyridin-3-yl)-N-(4-morpholin-4-yl-benzyl)-acrylamide] gave an IC50 of 10 nM.
In the case of `Cc1ncsc1C=CC(=O)N(Cc1ccc(-c2ncccn2)cc1)[C@@H](Cc1ccccc1)C(=O)N1CCc2ccccc2C1` [Example 104, (S)—N-[1-Benzyl-2-(3,4-dihydro-1H-isoquinolin-2-yl)-2-oxo-ethyl]-3-(4-methyl-thiazol-5-yl)-N-(4-pyrimidin-2-yl-benzyl)-acrylamide], the IC50 is reported as 84 nM.
`Cc1ncsc1C=CC(=O)N(Cc1ccc(-n2cncn2)cc1)[C@@H](Cc1ccccc1)C(=O)N1CCc2ccccc2C1` [Example 178, (S)—N-[1-Benzyl-2-(3,4-dihydro-1H-isoquinolin-2-yl)-2-oxo-ethyl]-3-(4-methyl-thiazol-5-yl)-N-(4-[1,2,4]-triazol-1-yl-benzyl)-acrylamide] was tested, and the IC50 was 28 nM.

Same assay, conditions: erythrocytic stages, strain K1 resistant to chloroquine and pyrimethamine, human red cells; read-out: IC50 (nM) on K1
`COc1cc(C=CC(=O)N(Cc2ccc(-c3ccccn3)cc2)[C@@H](Cc2ccccc2)C(=O)N2CCc3ccccc3C2)cc(OC)c1` [Example 14, (S)—N-[1-Benzyl-2-(3,4-dihydro-1-H-isoquinolin-2-yl)-2-oxo-ethyl]-3-(3,5-dimethoxy-phenyl)-N-(4-pyridin-2-yl-benzyl)-acrylamide] was tested, and the IC50 was 18 nM.
